Assay results published in patent US20080312209A1, “Piperazine Heteroaryl Derivatives as Gpr38 Agonists” (Glaxo Group Limited, priority 2005, published 2008).

Legend:
hGPR38R [1] = biological target: T1, hGPR38R (Homo sapiens, UniProt O43193); assay: GPR38 GTPγS functional agonist assay; type: biochemical; design: expressed in transfected cells; host or cells: HEK293 (transient transfection; P2 membrane fractions); conditions: [35S]GTPγS SPA, HEK293 membranes with hGPR38R and Go G-protein; read-out: pEC50 in the GTPγS assay (converted)
Protocol: The potencies and intrinsic activities of the compounds of this invention can also be determined according to the [35S]GTPγS functional assay which is described herein. It has been found, using the [35S]GTPγS functional assay, that compounds of formula (I) appear to be partial or full agonists of the GPR38 receptor.
GPR38GTPγS Functional Agonist Assay Protocol
For each compound being assayed, in an Opti clear bottom 96 well plate, is added:—
(a) 20 μl of test compound (or 10 μl of guanosine 5′-triphosphate (GTP) as non-specific binding control) diluted to required concentration in assay buffer (20 mM N-2-Hydroxyethylpiperazine-N′-2-ethanesulfonic acid (HEPES)+100 mM NaCl+10 mM MgCl2, pH adjusted to 7.4 with NaOH); (b) 60 μl bead/membrane/GDP mix prepared by suspending wheat germ agglutinin-polyvinyltoluene (WGA-PVT) scintillation proximity assay (SPA) beads at 100 mg/ml in assay buffer followed by mixing with membrane (prepared in accordance with the methodology described above) and diluting in assay buffer to give a final volume of 60 μl which contains 10 μg protein and 0.5 mg bead per well—mixture is pre-mixed at 4° C. for 30 min on a roller and just prior to addition to the plate, 10 μM final concentration of guanosine 5′ diphosphate (GDP—diluted in assay buffer) is added; (c) 20 μl guanosine 5′ [γ35-S]thiotriphosphate, triethylamine salt (Amersham; radioactivity concentration=37 kBq/μl or 1 mCi/ml; Specific Activity 1160 Ci/mmol) diluted to 1.9 nM in assay buffer to give 0.38 nM final.
The plate is incubated on a shaker at 25° C. for 30 min followed by centrifugation for 5 min at 1500 rpm. The plate is read between 3 and 6 h after completion of centrifuge run in a Wallac Microbeta counter on a 1 min normalised tritium count protocol. Data is analysed using a 4-parameter logistic equation. Basal activity used as minimum.
(§1) The following alternative procedure may also be used:
Membranes are derived from bulk cell cultures of HEK293 cell lines transiently transfected with hGPR38R and Go G-protein. P2 membranes fractions are prepared, aliquoted and stored at −80° C.
For each compound being assayed, the following is added into a white Greiner 384 well plate:—
(a) 1 μl of test compound diluted to required concentration in DMSO. (b) 20 μl bead/membrane/Saponin/GDP mix prepared as follows;—suspension of LEADseeker wheat germ agglutinin (WGA) scintillation proximity assay (SPA) beads at 25 mg/ml in assay buffer (20 mM N-2-Hydroxyethylpiperazine-N′-2-ethanesulfonic acid (HEPES)+100 mM NaCl+10 mM MgCl2, pH adjusted to 7.4 with KOH) containing saponin at 150 ug/ml. Mixing of bead suspension with membranes at 500 ug/ml (prepared in accordance with the methodology described above) and diluting in assay buffer to give a final volume of 20 μl which contains 5 μg protein and 0.25 mg bead per well.
Mixture is pre-mixed for 30 minutes on a roller and just prior to addition to the plate, 3 μM final assay concentration of guanosine 5′ diphosphate (GDP) (diluted in assay buffer) is added.
(c) 25 μl guanosine 5′ [γ35-S]thiotriphosphate, triethylamine salt (Amersham; radioactivity concentration=37 kBq/μl or 1 mCi/ml; Specific Activity 1160 Ci/mmol) diluted to 0.6 nM in assay buffer to give 0.33 nM final assay concentration.
The plate is then spun for 2 minutes at 1500 rpm and then incubated at room temperature for 4 hours. The plate is then read on a Viewlux Plux (Perkin Elmer). Data is analysed using a 4-parameter logistic equation.
Target sequence in this assay (O43193 whole entry): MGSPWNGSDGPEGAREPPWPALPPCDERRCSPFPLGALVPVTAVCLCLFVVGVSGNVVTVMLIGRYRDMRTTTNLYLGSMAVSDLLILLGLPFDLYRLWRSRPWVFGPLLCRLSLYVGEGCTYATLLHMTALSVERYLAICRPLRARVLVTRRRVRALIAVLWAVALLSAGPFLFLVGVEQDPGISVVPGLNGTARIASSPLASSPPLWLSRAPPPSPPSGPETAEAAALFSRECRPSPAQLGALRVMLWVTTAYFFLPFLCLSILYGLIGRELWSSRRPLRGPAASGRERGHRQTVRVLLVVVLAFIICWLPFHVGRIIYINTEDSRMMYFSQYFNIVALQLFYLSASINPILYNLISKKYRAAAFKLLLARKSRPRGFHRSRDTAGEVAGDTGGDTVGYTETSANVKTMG
Target sequence in this assay (P09471 2-354 partner limits assumed): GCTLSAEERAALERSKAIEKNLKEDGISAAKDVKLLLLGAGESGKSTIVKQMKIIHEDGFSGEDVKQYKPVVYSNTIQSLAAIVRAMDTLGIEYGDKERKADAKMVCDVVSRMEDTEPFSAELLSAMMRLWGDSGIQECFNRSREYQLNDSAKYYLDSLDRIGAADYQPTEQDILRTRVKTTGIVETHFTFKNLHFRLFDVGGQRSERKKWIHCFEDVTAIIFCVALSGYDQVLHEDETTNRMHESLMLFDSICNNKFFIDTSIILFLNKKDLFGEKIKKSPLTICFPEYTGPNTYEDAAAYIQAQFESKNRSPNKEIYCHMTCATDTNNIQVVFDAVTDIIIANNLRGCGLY
Target sequence in this assay (P62873 2-340 partner limits assumed): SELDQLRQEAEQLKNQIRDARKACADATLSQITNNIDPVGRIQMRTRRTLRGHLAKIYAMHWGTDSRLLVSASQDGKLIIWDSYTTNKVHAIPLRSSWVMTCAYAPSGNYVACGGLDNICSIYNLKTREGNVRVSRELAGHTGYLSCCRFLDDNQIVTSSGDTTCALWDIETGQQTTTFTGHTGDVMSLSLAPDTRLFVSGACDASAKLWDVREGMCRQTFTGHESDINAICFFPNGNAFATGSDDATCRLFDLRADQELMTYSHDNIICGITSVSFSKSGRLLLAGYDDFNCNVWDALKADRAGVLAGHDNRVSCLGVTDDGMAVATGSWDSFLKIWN
Target sequence in this assay (P59768 2-68 partner limits assumed): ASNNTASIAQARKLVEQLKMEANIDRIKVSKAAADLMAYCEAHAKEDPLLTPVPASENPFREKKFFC

hGPR38R [2] = biological target: T1, hGPR38R; assay: GPR38 FLIPR functional agonist assay; type: cell-based; design: expressed in transfected cells; conditions: HEK-293 cells stably expressing the GPR38 receptor; agonist response, Fluo-4 fluorescence; read-out: pEC50 in the FLIPR assay (converted)
Protocol: The potencies and efficacies of the compounds of this invention for GPR^38 can be determined by FLIPR assay performed on the human cloned receptor as described herein. It has been found, using the FLIPR functional assay, that compounds of formula (I) appear to be partial or full agonists of the GPR38 receptor.
GPR38FLIPR Functional Agonist Assay Protocol
HEK-293 cells stably expressing the GPR38 receptor were seeded (10,000 cells/well) into poly-D-lysine coated 384-well black-wall, clear-bottom microtitre plates (Becton Dickinson) 24 h prior to assay. On day of assay, cells were washed (×2) with 80 ul of assay buffer (Hanks Balanced Salts Solution (HBSS), 10 mM HEPES, 200 μM Ca^2+, 2.5 mM probenecid) using the EMBLA cell washer. After the final wash, buffer was aspirated to leave a residual volume of 30 ul on the cells. Cells were loaded with 1 μM (final) Fluo-4-AM fluorescent indicator dye (TefLabs) in assay buffer, (20 ul loading solution added to each well using the Multidrop). Plates were incubated for 1 h at 37° C., before being washed (×3) with 80 ul assay buffer using the EMBLA cell washer; 30 ul residual being left after the final wash. Plates were then assayed on a Fluorometric Imaging Plate Reader (FLIPR, Molecular Devices). Test compounds were prepared in assay buffer without probenecid, but containing 0.03% CHAPS. In the FLIPR, 10 ul of test compound was added to the cells and changes in fluorescence measured over a 2 min timeframe. Maximum change in fluorescence over baseline was used to determine agonist response and concentration response curves were constructed, using a 4-parameter logistic equation.
as §1
Target sequence in this assay (O43193 whole entry): as the sequence (O43193 whole entry) above
HEK-293 cells stably expressing the GPR38 receptor were seeded (30,000 cells/100 ul growth media/well) into poly-D-lysine coated 96-well black-wall, clear-bottom microtitre plates (Corning) 24 hours prior to assay. On the day of assay the cells were loaded with 2 μM (final) Fluo-4-AM fluorescent indicator dye (Molecular Probes) and 1 mM (final) probenicid in assay buffer (145 mM sodium chloride, 2.5 mM potassium chloride, 10 mM Hepes, 10 mM glucose, 1.2 mM magnesium chloride, 1.5 mM calcium chloride and 0.1% BSA) (50 ul loading solution added to each well). Plates were incubated for 1 hour at 25° C., before being washed 4 times with 100 ul assay buffer using the EMBLA cell washer; 150 ul residual being left after the final wash. The cells were then incubated at 25° C. for 20 minutes and the plates were then assayed on a Fluorometric Imaging Plate Reader (FLIPR, Molecular Devices). Test compounds were prepared in assay buffer without probenecid. In the FLIPR, 50 ul of test compound was added to the cells and changes in fluorescence measured over a 2 minute timeframe. Maximum change in fluorescence over baseline was used to determine agonist response and concentration response curves were constructed, using a 4-parameter logistic equation.

## C[C@@H]1CN(Cc2ccc(-c3cccnc3CN(C)C(=O)CCc3ccc(F)cc3)cc2)C[C@H](C)N1 [Example 3, N-{[3-(4{[(3R,5S)-3,5-Dimethyl-1-piperazinyl]methyl}phenyl)-2-pyridinyl]methyl}-3-(4-fluorophenyl)-N-methylpropanamide]
hGPR38R [1]
  EC50: < 3160 nM
hGPR38R [2]
  EC50: < 316 nM
